Laboratory results reported in paper PMC10710878 (Journal of receptor and signal transduction research, 2022).
Structures can show the parent of a compound that is named as a salt. Where two headings read alike, the source gives them in different places. Each block holds one molecule with its values, some of them ahead of it.

What was measured:
[1] = target: T1, α2A-AR (Rattus norvegicus, UniProt P22909); type: cell-based; conditions: for pKb (equilibrium dissociation constant, Schild x-intercept): antagonizing EPI-induced reduction of epileptiform burst discharges
T1 sequence (P22909 1-465): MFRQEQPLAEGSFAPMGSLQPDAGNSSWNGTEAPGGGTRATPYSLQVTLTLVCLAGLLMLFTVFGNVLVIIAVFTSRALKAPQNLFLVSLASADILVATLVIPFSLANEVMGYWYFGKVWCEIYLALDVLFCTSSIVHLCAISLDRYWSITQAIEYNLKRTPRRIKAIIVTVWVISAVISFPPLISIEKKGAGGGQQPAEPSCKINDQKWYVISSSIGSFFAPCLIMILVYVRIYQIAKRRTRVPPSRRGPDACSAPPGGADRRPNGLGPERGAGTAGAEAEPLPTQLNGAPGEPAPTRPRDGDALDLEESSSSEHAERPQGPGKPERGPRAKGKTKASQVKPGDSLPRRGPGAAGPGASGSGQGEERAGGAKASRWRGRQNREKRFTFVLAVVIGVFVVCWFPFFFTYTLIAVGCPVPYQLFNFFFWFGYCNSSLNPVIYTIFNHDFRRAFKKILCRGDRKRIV

[2] = system: pyramidal cells; conditions: modulation of α2A-AR, data not shown
[3] = system: human α2A-AR versus α2B- or α2C-AR; conditions: published EC50 for cloned human α2-ARs, ref Table S3; cited from earlier work
[4] = system: human 5-HT1A; conditions: published pEC50, ref Table S3; cited from earlier work

pKb (equilibrium dissociation constant, Schild x-intercept) [1]: 6.14
SMILES: COc1ccccc1N1CCN(CCN2C(=O)c3ccccc3C(C)(C)C2=O)CC1 [ARC-239]

pKb (equilibrium dissociation constant, Schild x-intercept) [1]: 7.81
SMILES: CC1c2ccccc2CN1CC1=NCCN1 (centres unmarked) [BRL-44408]

parallel rightward shift of the control EPI concentration-response curve ([1]; 3 nM RS-79948): 4 fold
parallel rightward shift of the control EPI concentration-response curve ([1]; 10 nM RS-79948): 13 fold
parallel rightward shift of the control EPI concentration-response curve ([1]; 30 nM RS-79948): 34 fold
pKb (equilibrium dissociation constant, Schild x-intercept) [1]: 9.00 ± 0.16
Schild regression slope ([1]; dose ratios of EPI EC50): 0.95 ± 0.11
SMILES: CCS(=O)(=O)N1CCC[C@@H]2CN3CCc4cc(OC)ccc4[C@@H]3C[C@@H]21 [RS-79948]

pKb (equilibrium dissociation constant, Schild x-intercept) [1]: 8.87
SMILES: COC1(C2=NCCN2)COc2ccccc2O1 (centres unmarked) [RX-821002]

Kb [1]: 3.72 nM
SMILES: CCC1(C2=NCCN2)Cc2ccccc2O1 (centres unmarked) [efaroxan, efaroxan hydrochloride]

Kb [1]: 39.8 nM
SMILES: N=C(N)N/N=C/c1c(Cl)cccc1Cl [guanabenz, guanabenz acetate]

The remaining lines, values behind:

SMILES: CNC[C@H](O)c1ccc(O)c(O)c1 [EPI, epinephrine]
hyperpolarization of pyramidal cells [2]: does not hyperpolarize pyramidal cells

SMILES: CN1CCN(c2ccc(Nc3c4ccccc4nc4ccccc34)cc2)CC1 [JP-1302]
pKb (equilibrium dissociation constant, Schild x-intercept) [1]: 5.23

SMILES: CN1CC[C@]2(CCN3CCc4c(oc5ccccc45)[C@@H]3C2)N(C)C1=O [MK-912]
pKb (equilibrium dissociation constant, Schild x-intercept) [1]: 8.32

SMILES: Brc1c(NC2=NCCN2)ccc2nccnc12 [UK-14304]
greater potency at α2A-ARs than α2B- or α2C-ARs [3]: 10 fold
lower potency towards 5-HT1A compared with the α2A-AR [4]: 1,000 fold

SMILES: COc1cccc(OC)c1OCCNCC1COc2ccccc2O1 (centres unmarked) [WB-4101]
pKb (equilibrium dissociation constant, Schild x-intercept) [1]: 7.34

SMILES: Cc1cccc([C@H](C)c2cnc[nH]2)c1C [dexmedetomidine, dexmedetomidine hydrochloride]
α2-AR subtype selectivity in words [3]: no subtype selectivity
